Experimental data: patent publication US8471005B2 (Cephalon, Inc., priority 2008, dated 2013)
Read-outs that look alike come from different tables or passages of the source.

How the values were obtained:
JAK2 = target: T1, JAK2 (Homo sapiens, UniProt O60674); test: Recombinant Human JAK2 Kinase Assay (TRF); type: biochemical; settings: read-out: JAK2 Potency
T1 construct: host or cells: baculovirus expression system
How it was run: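 TRF read-out: Eu-N1 PY100 anti-phosphotyrosine antibody detects product. Enzyme is baculovirus-expressed JAK2 at 15 ng/ml; substrate is a biotinyl 15-mer peptide bound to Neutravidin-coated wells. Buffer 20 mM HEPES pH 7.2, 0.2 μM ATP, 1 mM MnCl2, 0.1% BSA, 2.5% DMSO final; 20 min, RT.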

ALK = target: T2, ALK (Homo sapiens, UniProt Q9UM73); test: ALK Kinase Assay (ELISA/TRF, PLC-γ substrate); type: biochemical; settings: read-out: ALK Potency
T2 construct: host or cells: baculovirus expression system
How it was run: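 IC50 values derive from percent inhibition plotted against log10 compound concentration and fitted to a variable-slope sigmoidal equation. The underlying reaction used 30 ng/ml ALK acting on immobilized PLC-γ (10 μg/mL in TBS) at 37° C for 15 minutes, read with Eu-N1 PT66 antibody.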

[1] = JAK2 kinase inhibition, 0.2 μM ATP
[2] = ALK kinase inhibition, 1 μM ATP

T1 sequence (O60674 whole entry): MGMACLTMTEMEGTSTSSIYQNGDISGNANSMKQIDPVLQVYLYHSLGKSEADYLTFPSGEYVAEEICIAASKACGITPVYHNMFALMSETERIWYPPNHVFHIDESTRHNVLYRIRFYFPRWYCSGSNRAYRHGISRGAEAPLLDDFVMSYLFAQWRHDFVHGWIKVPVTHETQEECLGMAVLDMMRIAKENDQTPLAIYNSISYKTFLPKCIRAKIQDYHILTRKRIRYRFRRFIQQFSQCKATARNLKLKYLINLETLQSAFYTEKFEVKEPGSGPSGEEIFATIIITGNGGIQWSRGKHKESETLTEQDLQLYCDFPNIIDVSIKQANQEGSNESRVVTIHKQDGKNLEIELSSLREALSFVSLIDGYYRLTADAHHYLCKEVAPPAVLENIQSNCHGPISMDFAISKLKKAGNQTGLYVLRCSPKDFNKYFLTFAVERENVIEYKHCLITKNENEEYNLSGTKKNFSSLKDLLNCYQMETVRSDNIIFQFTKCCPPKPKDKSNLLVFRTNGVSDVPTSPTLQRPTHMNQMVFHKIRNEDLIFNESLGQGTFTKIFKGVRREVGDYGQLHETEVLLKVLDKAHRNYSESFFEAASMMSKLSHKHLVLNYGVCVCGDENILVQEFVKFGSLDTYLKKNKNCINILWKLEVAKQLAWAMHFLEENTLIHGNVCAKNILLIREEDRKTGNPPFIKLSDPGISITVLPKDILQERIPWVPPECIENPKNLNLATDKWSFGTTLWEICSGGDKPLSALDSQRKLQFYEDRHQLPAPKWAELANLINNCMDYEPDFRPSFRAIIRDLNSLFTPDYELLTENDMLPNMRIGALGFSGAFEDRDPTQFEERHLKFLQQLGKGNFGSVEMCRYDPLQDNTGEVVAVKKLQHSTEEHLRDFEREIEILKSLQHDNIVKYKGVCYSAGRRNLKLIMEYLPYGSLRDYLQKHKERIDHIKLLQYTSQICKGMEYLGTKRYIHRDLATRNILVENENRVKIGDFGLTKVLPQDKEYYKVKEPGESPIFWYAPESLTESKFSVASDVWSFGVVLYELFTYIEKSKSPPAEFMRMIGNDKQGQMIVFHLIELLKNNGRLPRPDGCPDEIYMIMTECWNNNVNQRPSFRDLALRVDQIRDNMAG
T2 sequence (Q9UM73 19-1620): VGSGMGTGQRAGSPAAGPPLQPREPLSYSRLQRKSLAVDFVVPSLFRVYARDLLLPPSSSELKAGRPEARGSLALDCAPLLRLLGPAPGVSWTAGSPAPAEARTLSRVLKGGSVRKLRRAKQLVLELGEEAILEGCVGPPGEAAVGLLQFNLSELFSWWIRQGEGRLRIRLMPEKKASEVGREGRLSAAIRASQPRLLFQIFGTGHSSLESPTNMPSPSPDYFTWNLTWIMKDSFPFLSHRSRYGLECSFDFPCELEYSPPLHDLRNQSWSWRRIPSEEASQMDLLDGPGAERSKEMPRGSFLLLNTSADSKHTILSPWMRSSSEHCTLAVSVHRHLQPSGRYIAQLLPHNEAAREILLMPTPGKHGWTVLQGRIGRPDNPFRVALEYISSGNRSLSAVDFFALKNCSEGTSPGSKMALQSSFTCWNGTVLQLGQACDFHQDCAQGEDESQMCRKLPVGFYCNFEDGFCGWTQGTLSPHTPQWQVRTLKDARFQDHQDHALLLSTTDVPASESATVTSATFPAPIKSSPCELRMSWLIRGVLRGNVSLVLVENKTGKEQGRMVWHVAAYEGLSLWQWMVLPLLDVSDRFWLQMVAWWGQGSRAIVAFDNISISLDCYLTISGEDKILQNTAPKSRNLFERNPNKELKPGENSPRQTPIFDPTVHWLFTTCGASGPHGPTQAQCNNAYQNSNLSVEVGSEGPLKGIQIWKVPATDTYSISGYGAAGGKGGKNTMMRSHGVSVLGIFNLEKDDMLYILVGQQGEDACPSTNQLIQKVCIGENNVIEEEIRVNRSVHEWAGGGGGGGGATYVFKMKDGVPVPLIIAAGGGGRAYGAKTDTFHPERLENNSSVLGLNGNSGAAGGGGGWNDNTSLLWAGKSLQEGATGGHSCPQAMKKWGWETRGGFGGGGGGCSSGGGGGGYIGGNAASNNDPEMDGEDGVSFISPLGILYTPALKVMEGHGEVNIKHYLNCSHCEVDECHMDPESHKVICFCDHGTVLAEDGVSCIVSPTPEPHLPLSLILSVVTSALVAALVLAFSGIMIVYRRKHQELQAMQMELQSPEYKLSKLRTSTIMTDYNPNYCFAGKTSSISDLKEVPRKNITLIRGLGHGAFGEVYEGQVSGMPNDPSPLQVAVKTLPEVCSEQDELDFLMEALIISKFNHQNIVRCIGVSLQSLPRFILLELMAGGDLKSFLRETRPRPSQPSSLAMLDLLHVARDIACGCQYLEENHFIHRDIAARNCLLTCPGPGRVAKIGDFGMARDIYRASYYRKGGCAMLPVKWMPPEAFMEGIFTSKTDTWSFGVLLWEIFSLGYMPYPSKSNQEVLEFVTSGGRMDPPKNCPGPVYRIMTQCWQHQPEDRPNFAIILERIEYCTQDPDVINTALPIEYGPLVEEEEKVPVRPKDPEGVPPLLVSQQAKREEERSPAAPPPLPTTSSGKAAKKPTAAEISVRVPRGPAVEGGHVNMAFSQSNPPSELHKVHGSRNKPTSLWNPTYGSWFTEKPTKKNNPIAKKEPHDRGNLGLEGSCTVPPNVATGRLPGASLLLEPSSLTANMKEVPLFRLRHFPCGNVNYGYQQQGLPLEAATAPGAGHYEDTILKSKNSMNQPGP

| SMILES | IC50 (JAK2; JAK2 Kinase Inhibition) [nM] | IC50 (ALK; ALK Kinase Inhibition) [nM] | IC50 (JAK2; [1]) [nM] | IC50 (ALK; [2]) [nM] |
| --- | --- | --- | --- | --- |
| COc1cc(N2CCC(N3CCN(C)CC3)CC2)ccc1Nc1ncc2ccc(-c3cccnc3)n2n1 [Example 241] | 100 to 1000 | < 100 | – | – |
| CN1CCc2ccc(Nc3ncc4ccc(-c5cccc(S(=O)(=O)NC(C)(C)C)c5)n4n3)cc2C1 [Example 931, N-tert-Butyl-3-[2-(2-methyl-1,2,3,4-tetrahydro-isoquinolin-7-ylamino)-pyrrolo[2,1-f][1,2,4]triazin-7-yl]-benzenesulfonamide] | – | – | < 100 | 100 to 1000 |
| Cc1ccc(S(=O)(=O)N(C)C)cc1-c1ccc2cnc(Nc3ccc(N4CCN(C)CC4)cc3)nn12 [Example 74, 4,N,N-Trimethyl-3-{2-[4-(4-methyl-piperazin-1-yl)-phenylamino]-pyrrolo[2,1-f][1,2,4]triazin-7-yl}-benzenesulfonamide] | < 100 | 100 to 1000 | – | – |
| CCN1CCC(O)(c2ccc(Nc3ncc4ccc(-c5ccccc5N(C)S(C)(=O)=O)n4n3)c(OC)c2)CC1 [Example 743, N-(2-{2-[4-(1-Ethyl-4-hydroxy-piperidin-4-yl)-2-methoxy-phenylamino]-pyrrolo[2,1-f][1,2,4]triazin-7-yl}-phenyl)-N-methyl-methanesulfonamide] | – | – | 1000 to 10000 | < 100 |
| COc1cc(CN2CCN(C[C@@H](O)CO)CC2)ccc1Nc1ncc2ccc(-c3ccccc3N(C)S(C)(=O)=O)n2n1 [Example 1228, N-[2-(2-{4-[4-((R)-2,3-Dihydroxy-propyl)-piperazin-1-ylmethyl]-2-methoxy-phenylamino}-pyrrolo[2,1-f][1,2,4]triazin-7-yl)-phenyl]-N-methyl-methanesulfonamide] | – | – | 100 to 1000 | < 100 |
| COc1ccccc1-c1ccc2cnc(Nc3cccc(N4CCN(CCO)CC4)c3)nn12 [Example 178, 2-(4-{3-[7-(2-Methoxy-phenyl)-pyrrolo[2,1-f][1,2,4]triazin-2-ylamino]-phenyl}-piperazin-1-yl)-ethanol] | < 100 | < 100 | – | – |
| COc1cc(N2CCC(N3CCCN(CCO)CC3)CC2)ccc1Nc1ncc2ccc(-c3ccccc3OC)n2n1 [Example 801, 2-[4-(1-{3-Methoxy-4-[7-(2-methoxy-phenyl)-pyrrolo[2,1-f][1,2,4]triazin-2-ylamino]-phenyl}-piperidin-4-yl)-[1,4]diazepan-1-yl]-ethanol] | – | – | < 100 | < 100 |
| CC(C)(C)NS(=O)(=O)c1cccc(-c2ccc3cnc(Nc4ccc(N5CCOCC5)c(F)c4)nn23)c1 [Example 1395, N-tert-Butyl-3-[2-(3-fluoro-4-morpholin-4-yl-phenylamino)-pyrrolo[2,1-f][1,2,4]triazin-7-yl]-benzenesulfonamide] | < 100 | 100 to 1000 | – | – |
| N#CCOc1ccccc1-c1ccc2cnc(Nc3ccc(N4CCOCC4)cc3)nn12 [Example 1144, {2-[2-(4-Morpholin-4-yl-phenylamino)-pyrrolo[2,1-f][1,2,4]triazin-7-yl]-phenoxy}-acetonitrile] | – | – | < 100 | < 100 |
| CS(=O)(=O)c1cccc(-c2ccc3cnc(N4CCC(Oc5cccc(N)c5)CC4)nn23)c1 [Example 563, 3-{1-[7-(3-Methanesulfonyl-phenyl)-pyrrolo[2,1-f][1,2,4]triazin-2-yl]-piperdin-4-yloxy}-phenylamine] | – | – | 1000 to 10000 | > 10000 |
| Brc1ccc(Nc2ncc3cc4ccccc4n3n2)cc1 [Example 751, (4-Bromo-phenyl)-[1,2,4]triazino[1,6-a]indol-2-yl-amine] | – | – | > 10000 | > 10000 |
| CN1CCC(C(=O)N2CCC(c3ccc(Nc4ncc5ccc(-c6ccccc6N(C)S(C)(=O)=O)n5n4)cc3)CC2)CC1 [Example 502, N-Methyl-N-[2-(2-{4-[1-(1-methyl-piperidine-4-carbonyl)-piperidin-4-yl]-phenylamino}-pyrrolo[2,1-f][1,2,4]triazin-7-yl)-phenyl]-methanesulfonamide] | – | – | < 100 | < 100 |
| COc1cc(C2CCCN(CC(N)=O)C2)ccc1Nc1ncc2ccc(-c3ccccc3OC)n2n1 (racemic) [Example 860, (±)-2-(3-{3-Methoxy-4-[7-(2-methoxy-phenyl)-pyrrolo[2,1-f][1,2,4]triazin-2-ylamino]-phenyl}-piperidin-1-yl)-acetamide] | – | – | < 100 | < 100 |
| CS(=O)(=O)Nc1ccc(-c2ccc3cnc(Nc4cccc(N5CCOCC5)c4)nn23)cc1 [Example 182, N-{4-[2-(3-Morpholin-4-yl-phenylamino)-pyrrolo[2,1-f][1,2,4]triazin-7-yl]-phenyl}-methanesulfonamide] | < 100 | 100 to 1000 | – | – |
| CN1CCN(c2ccc(Nc3ncc4ccc(-c5cccc(N(C)S(C)(=O)=O)c5)n4n3)cc2)CC1 [Example 419, N-Methyl-N-(3-{2-[4-(4-methyl-piperazin-1-yl)-phenylamino]-pyrrolo[2,1-f][1,2,4]triazin-7-yl}-phenyl)-methanesulfonamide] | < 100 | 100 to 1000 | – | – |
| COc1cc2c(cc1Nc1ncc3ccc(-c4ccccc4N(C)S(C)(=O)=O)n3n1)CCC1(CCN(C)CC1)O2 [Example 996, N-(2-{2-[(7-methoxy-1′-methyl-3,4-dihydrospiro[chromene-2,4′-piperidin]-6-yl)amino]pyrrolo[2,1-f][1,2,4]triazin-7-yl}phenyl)-N-methylmethanesulfonamide] | – | – | 1000 to 10000 | < 100 |
| CN1CCN(c2ccc(Nc3ncc4ccc(-c5ccc(C=O)cc5)n4n3)cc2)CC1 [Example 1203, 4-{2-[4-(4-Methyl-piperazin-1-yl)-phenylamino]-pyrrolo[2,1-f][1,2,4]triazin-7-yl}-benzaldehyde] | – | – | < 100 | 100 to 1000 |

More lines, now with the values ahead:

| IC50 (JAK2; JAK2 Kinase Inhibition) [nM] | IC50 (ALK; ALK Kinase Inhibition) [nM] | IC50 (JAK2; [1]) [nM] | IC50 (ALK; [2]) [nM] | SMILES |
| --- | --- | --- | --- | --- |
| < 100 | 100 to 1000 | – | – | COc1ccc(-c2ccc3cnc(Nc4ccc(N5CCN(CC(N)=O)CC5)c(F)c4)nn23)cn1 [Example 1415, 2-(4-{2-Fluoro-4-[7-(6-methoxy-pyridin-3-yl)-pyrrolo[2,1-f][1,2,4]triazin-2-ylamino]-phenyl}-piperazin-1-yl)-acetamide] |
| – | – | < 100 | < 100 | COc1ccccc1-c1ccc2cnc(Nc3ccc(C4CCN(CCO)CC4)cc3)nn12 [Example 668, 2-(4-{4-[7-(2-Methoxy-phenyl)-pyrrolo[2,1-f][1,2,4]triazin-2-ylamino]-phenyl}-piperidin-1-yl)-ethanol] |
| < 100 | < 100 | – | – | COc1ccc(Nc2ncc3ccc(-c4ccccc4N(C)S(C)(=O)=O)n3n2)cc1N1CCOCC1 [Example 393, N-{2-[2-(4-Methoxy-3-morpholin-4-yl-phenylamino)-pyrrolo[2,1-f][1,2,4]triazin-7-yl]-phenyl}-N-methyl-methanesulfonamide] |
| – | – | < 100 | 100 to 1000 | OCC1CCN(c2ccc(Nc3ncc4ccc(-c5cccc(Cl)c5)n4n3)cc2)CC1 [Example 1133, (1-{4-[7-(3-Chloro-phenyl)-pyrrolo[2,1-f][1,2,4]triazin-2-ylamino]-phenyl}-piperidin-4-yl)-methanol] |
| – | – | 1000 to 10000 | < 100 | COc1cc(C2CCNCC2)ccc1Nc1ncc2ccc(-c3ccccc3N(C)S(C)(=O)=O)n2n1 [Example 819, N-{2-[2-(2-Methoxy-4-piperidin-4-yl-phenylamino)-pyrrolo[2,1-f][1,2,4]triazin-7-yl]-phenyl}-N-methyl-methanesulfonamide] |
| < 100 | 100 to 1000 | – | – | CN1CCN(C(=O)c2ccc(Nc3ncc4ccc(-c5cccc(S(=O)(=O)NC(C)(C)C)c5)n4n3)cc2)CC1 [Example 1410, N-tert-Butyl-3-{2-[4-(4-methyl-piperazine-1-carbonyl)-phenylamino]-pyrrolo[2,1-f][1,2,4]triazin-7-yl}-benzenesulfonamide] |
| – | – | < 100 | 100 to 1000 | CN1CCN(c2ccc(Nc3ncc4ccc(-c5ccccc5OCC(=O)O)n4n3)cc2)CC1 [Example 1182, (2-{2-[4-(4-Methyl-piperazin-1-yl)-phenylamino]-pyrrolo[2,1-f][1,2,4]triazin-7-yl}-phenoxy)-acetic acid] |
| – | – | 100 to 1000 | 100 to 1000 | COc1ccccc1-c1ccc2cnc(Nc3ccc4c(c3OC)CC(N3CCOCC3)CCC4)nn12 (racemic) [Example 768, (±)-1-Methoxy-8-morpholin-4-yl-6,7,8,9-tetrahydro-5H-enzocyclohepten-2-yl)-[7-(2-methoxy-phenyl)-pyrrolo[2,1-f][1,2,4]triazin-2-yl]-amine] |
| – | – | < 100 | 1000 to 10000 | COCCn1cc(-c2ccc3cnc(Nc4cccc(N5CCN(C)CC5)c4)nn23)cn1 [Example 972, {7-[1-(2-Methoxy-ethyl)-1H-pyrazol-4-yl]-pyrrolo[2,1-f][1,2,4]triazin-2-yl}-[3-(4-methyl-piperazin-1-yl)-phenyl]-amine] |
| – | – | < 100 | 100 to 1000 | CN1CCN(c2cccc(Nc3ncc4ccc(-c5cnn(S(C)(=O)=O)c5)n4n3)c2)CC1 [Example 950, [7-(1-Methanesulfonyl-1H-pyrazol-4-yl)-pyrrolo[2,1-f][1,2,4]triazin-2-yl]-[3-(4-methyl-piperazin-1-yl)-phenyl]-amine] |
| – | – | < 100 | 1000 to 10000 | COc1ccc(-c2ccc3cnc(Nc4ccc(N5CCOCC5)nc4)nn23)cn1 [Example 1106] |
| < 100 | 1000 to 10000 | – | – | C=Cc1cc(-c2ccc(S(C)(=O)=O)cc2)n2nc(Nc3ccc(N4CCN(C)CC4)cc3)ncc12 [Example 104, [7-(4-Methanesulfonyl-phenyl)-5-vinyl-pyrrolo[2,1-f][1,2,4]triazin-2-yl]-[4-(4-methyl-piperazin-1-yl)-phenyl]-amine] |
